# Measured values from publication PMC5651017, “Molecular Insight into the Acryloyl-CoA Hydration by AcuH for Acrylate Detoxification in Dimethylsulfoniopropionate-Catabolizing Bacteria” (Frontiers in Microbiology, 2017).
# Experiments:
# Assay type in all cases: biochemical
# Details in all cases: acryloyl-CoA made in situ by D. shibae PrpE from 0.5 mM acrylate, CoA and ATP; 1 uM RdAcuH, 5 min, 5 mM MgCl2, 100 mM Tris-HCl pH 8.0
# [1] = target: T1, RdAcuH (Roseovarius nubinhibens, UniProt A3SKA6, E132A); assay: relative activity, 3-HP-CoA formation by HPLC / LC-MS
# T1 construct: gene ISM_05820; no signal peptide; pET-22b (NdeI/XhoI) in E. coli BL21(DE3), Ni-NTA purified; active site between NTD of one subunit and CTD of the neighbouring subunit
# T1 sequence (A3SKA6 entry or part of it E132A): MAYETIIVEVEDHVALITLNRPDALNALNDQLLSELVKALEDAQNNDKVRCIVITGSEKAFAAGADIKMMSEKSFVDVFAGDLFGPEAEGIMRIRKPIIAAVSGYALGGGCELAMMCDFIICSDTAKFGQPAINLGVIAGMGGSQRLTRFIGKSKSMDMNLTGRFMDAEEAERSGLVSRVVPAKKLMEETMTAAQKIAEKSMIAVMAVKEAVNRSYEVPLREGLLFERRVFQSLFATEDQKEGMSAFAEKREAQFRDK
# [2] = target: T2, RdAcuH (Roseovarius nubinhibens, UniProt A3SKA6, E112A); assay: as above
# T2 construct: gene ISM_05820; no signal peptide; pET-22b (NdeI/XhoI) in E. coli BL21(DE3), Ni-NTA purified; active site between NTD of one subunit and CTD of the neighbouring subunit
# T2 sequence (A3SKA6 entry or part of it E112A): as the sequence (A3SKA6 entry or part of it E132A) above, with E112A, A132E counted along it
# [3] = target: T3, RdAcuH (Roseovarius nubinhibens, UniProt A3SKA6); assay: HPLC / LC-MS of hydration to 3-HP-CoA
# T3 construct: gene ISM_05820; no signal peptide; pET-22b (NdeI/XhoI) in E. coli BL21(DE3), Ni-NTA purified; active site between NTD of one subunit and CTD of the neighbouring subunit
# T3 sequence (A3SKA6 1-258): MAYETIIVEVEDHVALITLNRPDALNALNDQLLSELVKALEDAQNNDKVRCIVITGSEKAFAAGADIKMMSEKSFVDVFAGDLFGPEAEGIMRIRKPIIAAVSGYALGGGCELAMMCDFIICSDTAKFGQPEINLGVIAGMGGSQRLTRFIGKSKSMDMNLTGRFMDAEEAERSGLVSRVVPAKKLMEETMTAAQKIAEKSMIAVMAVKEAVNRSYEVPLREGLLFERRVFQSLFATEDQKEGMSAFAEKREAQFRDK
SMILES,relative activity [1],relative activity [2],HPLC / LC-MS of hydration to 3-HP-CoA [3]
C=CC(=O)SCCNC(=O)CCNC(=O)[C@H](O)C(C)(C)COP(=O)(O)OP(=O)(O)OC[C@H]1O[C@@H](n2cnc3c(N)ncnc32)[C@H](O)[C@@H]1OP(=O)(O)O [acryloyl-CoA],mutations on each of the glutamates to alanine resulted in the inactivation of RdAcuH,mutations on each of the glutamates to alanine resulted in the inactivation of RdAcuH,acryloyl-CoA was hydrated by RdAcuH and 3-HP-CoA was produced
CC(C)(COP(=O)(O)OP(=O)(O)OC[C@H]1O[C@@H](n2cnc3c(N)ncnc32)[C@H](O)[C@@H]1OP(=O)(O)O)[C@@H](O)C(=O)NCCC(=O)NCCSC(=O)CCO [3-HP-CoA],–,–,RdAcuH has acryloyl-CoA hydratase activity and can catalyze acryloyl-CoA to 3-HP-CoA
